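Following 48 hours of exposure in 96-well plates, responses at five concentrations were used to interpolate endpoints linearly. GI50: concentration for 50% inhibition of growth. TGI: total growth inhibition.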
Key:
Test in all cases: NCI-60 cell line screen, 48 h
SK-OV-3 ovarian = system: SK-OV-3 ovarian
T-47D breast = system: T-47D breast
OVCAR-5 ovarian = system: OVCAR-5 ovarian
SK-MEL-2 melanoma = system: SK-MEL-2 melanoma
KM12 colon = system: KM12 colon
MCF7 breast = system: MCF7 breast
HL-60(TB) leukemia = system: HL-60(TB) leukemia
BT-549 breast = system: BT-549 breast
SNB-78 CNS = system: SNB-78 CNS
KM20L2 colon = system: KM20L2 colon
LXFL 529 NSCLC = system: LXFL 529 NSCLC
HOP-18 NSCLC = system: HOP-18 NSCLC

Structure (SMILES) | TGI (SK-OV-3 ovarian) | TGI (T-47D breast) | TGI (OVCAR-5 ovarian) | TGI (SK-MEL-2 melanoma) | TGI (KM12 colon) | TGI (MCF7 breast) | TGI (HL-60(TB) leukemia) | TGI (BT-549 breast) | GI50 (SK-OV-3 ovarian) | GI50 (T-47D breast) | GI50 (OVCAR-5 ovarian) | GI50 (SK-MEL-2 melanoma) | GI50 (KM12 colon) | GI50 (MCF7 breast) | GI50 (HL-60(TB) leukemia) | GI50 (BT-549 breast) | TGI (SNB-78 CNS) | TGI (KM20L2 colon) | TGI (LXFL 529 NSCLC) | TGI (HOP-18 NSCLC)
Cc1ccc(OC2CC(n3cnc4ncnc(Cl)c43)OC2Oc2ccc(C)cc2)cc1 (stereo not given) | > 100 µM | 28.8 µM | 58.3 µM | 32.2 µM | 74.4 µM | 29.9 µM | > 100 µM | > 100 µM |  |  |  |  |  |  |  |  |  |  |  | 
N#C/C(=C\NC(=S)c1ccncc1)c1nc2ccccc2s1 | > 100 µM | > 100 µM | > 100 µM | > 100 µM | > 100 µM | > 100 µM | > 100 µM | > 100 µM |  |  |  |  |  |  |  |  |  |  |  | 
Cc1ccc(O)c(-c2cc(-c3cccc(Cl)c3)c(C#N)c(N)n2)c1 | 66.2 µM | > 100 µM | 70.4 µM | 31.6 µM | 64.2 µM | 42.7 µM | 68.6 µM | > 100 µM |  |  |  |  |  |  |  |  |  |  |  | 
CCOC(=O)C(C(=S)Nc1ccccc1)c1nn2c(=O)cc(C)nc2s1 (stereo not given) | 65.7 µM | 85.2 µM | > 100 µM | 94.8 µM | 68.8 µM | 37.8 µM | 43.8 µM | 78.7 µM |  |  |  |  |  |  |  |  |  |  |  | 
Cc1noc2nnn(-c3ccc(Cl)cc3)c(=O)c12 | 26.5 µM | 10.8 µM | 20 µM | 10.5 µM | 31.1 µM | 13.6 µM | 3.57 µM | 13.5 µM |  |  |  |  |  |  |  |  |  |  |  | 
CCOC(=O)c1ccc(C(=O)/C(C(C)=O)=C2\CCCN2C)n1C | > 100 µM | 92 µM | > 100 µM | > 100 µM | > 100 µM | > 100 µM | 64.2 µM | > 100 µM |  |  |  |  |  |  |  |  |  |  |  | 
c1ccc2c(c1)ncn2C1CCCCO1 (stereo not given) | > 100 µM | > 100 µM | > 100 µM | > 100 µM | > 100 µM | > 100 µM | > 100 µM | > 100 µM |  |  |  |  |  |  |  |  |  |  |  | 
CC(=C(C(N)=O)C(N)=O)C1C=C(c2cccs2)CC(c2ccc(Cl)cc2)=C1O (stereo not given) | > 100 µM | > 100 µM | > 100 µM | > 100 µM | > 100 µM | > 100 µM | > 100 µM | > 100 µM |  |  |  |  |  |  |  |  |  |  |  | 
O=C1/C(=C/c2ccc(Cl)cc2)N=C(c2ccccc2)N1CCc1cccs1 | > 100 µM | > 100 µM | > 100 µM | > 100 µM | > 100 µM | > 100 µM | 90.2 µM | > 100 µM | 55.9 µM | 18.2 µM | 61.2 µM | 14 µM | 22 µM | 18.4 µM | 21.4 µM | 22.1 µM |  |  |  | 
Cc1cccnc1/N=C/c1c(O)n(C)c(=O)[nH]c1=O | > 100 µM | > 100 µM | > 100 µM | > 100 µM | > 100 µM | > 100 µM | > 100 µM | > 100 µM |  |  |  |  |  |  |  |  |  |  |  | 
Nc1nc(N)c2ncn(Cc3ccccc3CCl)c2n1 | > 100 µM | > 100 µM | > 100 µM | > 100 µM | > 100 µM | > 100 µM | > 100 µM | > 100 µM |  |  |  |  |  |  |  |  |  |  |  | 
N=c1c2c(-c3ccccc3)c[nH]c2ncn1N | > 100 µM | > 100 µM | > 100 µM | > 100 µM | > 100 µM | > 100 µM | > 100 µM | > 100 µM |  |  |  |  |  |  |  |  |  |  |  | 
CC(=O)OC(CCC1(C)OC1COc1ccc(CCNC(=O)c2ccccc2)cc1)C(C)(C)OC(C)=O (stereo not given) | > 100 µM |  | > 100 µM | 60.4 µM | 33.7 µM |  | > 100 µM |  |  |  |  |  |  |  |  |  | > 100 µM | > 100 µM | 34.6 µM | > 100 µM
CCn1cc(C(=O)O)c(=O)c2cc3c(cc21)S(=O)(=O)CC3 | > 100 µM | > 100 µM | > 100 µM | > 100 µM | > 100 µM | > 100 µM | > 100 µM | > 100 µM |  |  |  |  |  |  |  |  |  |  |  | 
CC1OC(O[C@H]2C3C=CO[C@@H](OC4OC(CO)C(O)C(O)C4O)C3[C@@]3(COC(=O)/C=C/c4ccc(O)cc4)O[C@@H]23)C(O)C(O)C1O (stereo not given in full) | > 100 µM | > 100 µM | > 100 µM | > 100 µM | > 100 µM | > 100 µM | > 100 µM | > 100 µM |  |  |  |  |  |  |  |  |  |  |  | 
Cn1c(-c2ccccc2)cc2c3ccsc3c3ccsc3c21 | > 100 µM | > 100 µM | > 100 µM | > 100 µM | > 100 µM | > 100 µM | > 100 µM | > 100 µM |  |  |  |  |  |  |  |  |  |  |  | 
Nc1nc(Cl)cc(NCCC2(CO)CCC2)n1 | > 100 µM | > 100 µM | > 100 µM | > 100 µM | > 100 µM | > 100 µM | > 100 µM | > 100 µM |  |  |  |  |  |  |  |  |  |  |  | 
N#CCCN(CCC#N)c1ccc(/C=C2\N=C(c3ccccc3)N(NC(N)=S)C2=O)cc1 | > 100 µM | > 100 µM | > 100 µM | > 100 µM | > 100 µM | > 100 µM | > 100 µM | > 100 µM |  |  |  |  |  |  |  |  |  |  |  | 
COc1ccc(OC)c(CC2CCc3nc(N)nc(N)c3C2)c1 (stereo not given) | > 100 µM | > 68 µM | > 100 µM | 43.6 µM | > 100 µM | 32 µM | > 100 µM | 6.22 µM |  |  |  |  |  |  |  |  |  |  |  | 
Nc1[nH]c(=S)nc2snnc12 | > 100 µM | > 100 µM | > 100 µM | > 100 µM | > 100 µM | > 100 µM | > 100 µM | > 100 µM |  |  |  |  |  |  |  |  |  |  |  | 
O=C(CCCCCCC(=O)Nc1cccnc1)NO | > 71.8 µM | 8.12 µM | > 32.1 µM | 17.9 µM | > 44.6 µM | > 100 µM | 31.6 µM | > 100 µM |  |  |  |  |  |  |  |  |  |  |  | 
Cc1cc(C)nc(SC(C)C(=O)N/N=C/c2ccc(OCc3ccccc3)cc2)n1 (stereo not given) | > 100 µM | 63.8 µM | > 100 µM | 46.1 µM | > 100 µM | 90.5 µM | 38.3 µM | > 100 µM |  |  |  |  |  |  |  |  |  |  |  | 
C/C(=C/C(=O)Nn1c(Cc2ccccc2)n[nH]c1=O)C(=O)O | > 100 µM | > 100 µM | > 100 µM | > 100 µM | > 100 µM | > 100 µM | > 100 µM | > 100 µM |  |  |  |  |  |  |  |  |  |  |  | 
O=C(/C=C/c1cc(O)c(O)cc1O)OCCc1ccccc1 | 74.8 µM | 20.1 µM | > 59.2 µM | 47.2 µM | > 100 µM | 20.9 µM | 3.73 µM | 62.1 µM |  |  |  |  |  |  |  |  |  |  |  | 
CCOC(=O)Cc1nc2sc(S(N)(=O)=O)nn2c1Br | > 100 µM | 70.8 µM | > 100 µM | > 100 µM | > 100 µM | > 100 µM | > 100 µM | 83.8 µM |  |  |  |  |  |  |  |  |  |  |  | 
O=C1CCC(=O)N1n1c(Cc2ccc(Cl)cc2)n[nH]c1=O | > 100 µM | > 100 µM | > 100 µM | > 100 µM | > 100 µM | > 100 µM | > 100 µM | > 100 µM |  |  |  |  |  |  |  |  |  |  |  | 
CC(C)C1=CCC2C(=C1)CCC1C(C)(C(=O)O)CCCC21C (stereo not given) (tested in a mixture with another compound) | > 100 µM | > 100 µM | > 100 µM | > 100 µM | > 100 µM | > 100 µM | > 100 µM | > 100 µM |  |  |  |  |  |  |  |  |  |  |  | 

Source: PubChem BioAssay (NCI)
